Laboratory results published in patent US20090062370A1, “Method for increasing the speed of recovery and/or the speed of wound healing of injured animals” (priority 2005, published 2009).

Tests used:
[1] = tested on: wounded animals; test: Feeding of wounded animals with supplemented feed (general description, daily intake titration); format: in vivo
Description: Phytohormones and beta-glucans appeared to work in a wide range of concentrations for improving the speed of wound healing in animals. The optimal concentrations may vary between different species, however, the skilled person will know how to obtain an optimal concentration for a given species, for instance by titration of the desired compound into the animal feed and testing when this would have the optimal effect. The following may serve as guidance in this process.
A skilled person will appreciate that the amount of free IAA in the ready to use feed has to be adjusted in order to supply the animal with an effective amount of free IAA. In order to adjust the free IAA concentration in the feed so that a certain daily intake of free IAA is achieved, an estimate has to be made of the feed intake of an animal or animal group. A skilled person is aware of the feed intake of a (particular kind or group of) animal(s), typically, the feed intake per day is between 0.5 and 10% of the body weight of the animal, with occasional exceptions as high as 20%. Elderly animals tend to eat less and are considered to have a feed intake per day between 0.1 and 5%, typically of 1% of their body mass.

[2] = tested on: humans; conditions: single doses of 0.1 g/kg body weight; cited from earlier work
[3] = tested on: koi fish suffering from wounds as a result of parasites; test: Wound healing of koi fish in ponds fed fish feed according to the invention; format: in vivo; conditions: scale 1 (very slow recovery) to 5 (very fast recovery)
Description: Four ponds of 40 cubic meters each, each containing 50 koi fish with an approximate total body weight of 50 kg were used to establish the effect of the fish feed according to the invention on wound healing. One pond (pond 1) served as a control were the fish were fed with control feed, the fish in the other ponds received a feed according to the invention as prepared in examples 6 to 8 above.
The fish in control pond were fed with 10 gram Cyprico White 3 mm floater feed per day, whereas the fish in the other ponds were fed with 10 gram of the feed as described in Example 2, 3 and 4 (Table 2). About 10% of all fish suffered from wounds as a result of parasites.
The veterinarian filled in a questionnaire on the recovery process of the fish, Table 3. Criterion was the speed of disappearance of the wounds. This criterion was scored on a scale ranging from 1 to 5 wherein 1 was very slow recovery and 5 very fast recovery. This criterion was scored 1, 2, 4, 7 and 21 days of feeding.

[4] = tested on: fibroblasts; conditions: cited from earlier work
[5] = tested on: surgical wound; conditions: oral supplementation of 50 mg of zinc three times per day, as zinc sulfate; cited from earlier work

Molecule: 1.3 and 1.6 beta glucans
- optimal daily intake (optimal results / optimum between cost and benefit) ([1]; in feed): around 5 mg/kglw/day

Molecule: O=C(O)Cc1c[nH]c2ccccc12 [free IAA, indole-3-acetic acid]
- toxicity of single doses [2]: non-toxic
- effect on recovery of wounded animals ([1]; feed with 0.4 mg/kglw/day): very effective
- Wound healing score ([3]; 1 day of feeding): 1
- Wound healing score ([3]; 2 days of feeding): 1
- Wound healing score ([3]; 4 days of feeding): 2
- Wound healing score ([3]; 7 days of feeding): 3
- Wound healing score ([3]; 21 days of feeding): 4
- effect on the migration of fibroblasts in vitro [4]: had an effect

Molecule: C=C1C[C@]23C[C@@]1(O)CC[C@H]2[C@@]12C=C[C@H](O)[C@@](C)(C(=O)O1)[C@H]2[C@@H]3C(=O)O [gibberellin, gibberellic acid]
- effect on the migration of fibroblasts in vitro [4]: not

Molecule: O=S(=O)([O-])[O-].[Zn+2] [zinc, zinc sulfate]
- reduction of healing time of a surgical wound [5]: 43%
